{"source": "patent US20260083686A1", "about": "“METHODS FOR SUPPRESSING ACCUMULATION OF REFLUX-INDUCED PROTEIN ADDUCTS” (Vanderbilt University, priority 2018, published 2026)", "key": {"[1]": {"system": "isoLG protein adducts (LG-lysine lactam) in TE-7 cells", "test": "LG-lysine lactam adducts by LC/ESI/MS/MS in TE-7 cells treated with acidic bile salts (BA/A)", "format": "cell-based, human", "settings": "BA/A 100 μM pH 4.0 for 30 min, 2-HOBA 50 μM", "description": "Formation of LG-lysine adducts was further verified by quantification of the LG-lysyl lactam adducts using liquid chromatography-electrospray ionization-tandem mass spectrometry (LC/ESI/MS/MS) in TE-7 cells treated with BA/A. Our studies confirmed that levels of LG-lysine lactam adduct are higher in BA/A treated than control samples. Our quantification analyses were based on specific transitions from the molecular ion at m/z=479.2 to the specific fragment at m/z=332.1. The elution of the two fragment ions found in BA/A treated samples was similar to the [13C6]lysine-lactam internal standard (FIG. 2A). As an additional control, TE-7 cells were treated with BA/A as above but in the presence of known isoLG scavenger 2-hydroxybenzylamine (2HOBA) and analyzed by mass spectrometry.\nCell Lines: Human non-tumorous esophageal cell line (HET-1A) and human esophageal carcinoma cell line (TE-7) were purchased from ATCC. The morphology, karyotyping and PCR based techniques were used by ATCC to confirm the cell line identity. […]\nDetection of Levuglandinyl-Lysine Lactam Using Liquid Chromatography/Electrospray Ionization/Tandem Mass Spectrometry (LC/ESI/MS/MS): Levuglandinyl-lysine lactam was analyzed in TE-7 cells treated with acidic bile salts and control untreated cells using LC/ESI/MS/MS. […]"}, "[2]": {"system": "p53 isoLG protein adducts in EPC-2 cells", "test": "p53 immunoprecipitation and Western blot with D11 antibody for p53 isoLG adducts in BA/A-treated EPC-2 cells", "format": "cell-based, human", "settings": "2-HOBA 50 μM, p53 (DO-1) immunoprecipitation, D11 Western blot", "procedure": "To directly analyze p53 protein adducts, cellular lysates of EPC-2 cells, which were treated with BA/A in the presence or absence of 2-HOBA, were immunoprecipitated with p53 antibody. The immunoprecipitated p53 protein was then analyzed for the isoLG adducts by Western blotting with isoLG-specific D11 antibody.\nTreatment With Acidic Bile Salts (BA/A) and 2-HOBA: Cells were treated in acidic DMEM media (pH 4.0), containing bile salts cocktail at final concentration of 100 μM. The bile salt cocktail was prepared with a combination of glycocholic, taurocholic, glycodeoxycholic, glycochenodeoxycholic and deoxycholic sodium salts (all reagents were from Sigma-Aldrich, St. Louis, MO) at a concentration of 20 μM each. TE-7 and HET-1A cells were treated for 30 minutes, whereas, EPC-2 cells were treated for 15 minutes and then the media was replaced. […]\nFor immunoprecipitation, cells were harvested by centrifugation at 200 g for 5 minutes and resuspended in PBS with protease inhibitor cocktail. […] The immunoprecipitated samples were analyzed by Western blotting with D11 antibody and anti-E tag HRP-conjugated antibodies from Abcam. The analyzed membranes were stripped in Restore™ Western Blot Stripping Buffer (ThermoFisher Scientific, Waltham, MA) at +50° C. for 1 hour, washed, and blocked with 5% milk and analyzed by Western blotting with p53 (DO1) antibody."}, "[3]": {"system": "isoLG protein adducts in esophageal tissues", "test": "Surgical (esophagojejunostomy) reflux model in mice, isoLG adducts by immunohistochemistry with D11 antibody", "format": "in vivo", "settings": "2-HOBA 1 mg/ml in drinking water for 10 days; for accumulation of isoLG adducts in esophageal tissues in vivo: mice with surgically induced reflux", "description": "To investigate the formation of isoLG protein adducts in the esophagus, The present inventors used a surgical model of esophageal reflux injury. To generate animals with reflux, a section of the mouse jejunum was transected and then anastomosed to the esophagus resulting in an increased reflux. […] Using immunohistochemistry with D11 antibody, the present inventors compared levels of isoLG protein adducts in esophageal epithelia of animals with reflux induced by surgery and control animals with sham surgery. Levels of isoLG adducts were also analyzed in surgical animals treated with isoLG scavenger 2-HOBA for 10 days. The present inventors found significant accumulation of isoLG protein adducts in esophageal animal tissues affected by reflux.\nInduction of Reflux in Mice: Reflux was induced by surgical procedure, esophagojejunal anastomosis, as previously described. Esophagojejunostomy was performed on fourteen 8-week-old 129SV mice according to the protocol approved by the Vanderbilt University Animal Care and Use Committee. Animals were then be allowed a 2-weeks recovery period on regular rodent chow ad libitum prior to were randomly assigned into two groups. First group of 7 mice with surgery was treated with 2-HOBA (1 mg/ml) delivered in drinking water for 10 days, while a control group (7 surgical animals) only received water. Additional control group of 5 animals with sham surgery received water. The esophagus and gastroesophageal junction areas from the test and control groups of animals were harvested, paraffin-embedded and analyzed by immunohistochemistry with D11 antibody. Indices of D11 positivity were scored and compared in test and control groups of animals."}}, "note": "Entries after “also recorded” stand apart in the source; their conditions may differ.", "data": [{"smiles": "NCc1ccccc1O", "note": "[2-HOBA, 2-hydroxybenzylamine]", "values": [{"measurement": "formation of isoLG protein adducts (LG-lysine lactam adduct levels)", "setting": "[1]", "result": "higher in BA/A-treated samples compared to control and treated with isoLG scavenger 2-HOBA"}, {"measurement": "formation of isoLG protein adducts (LG-lysine lactam adduct levels)", "setting": "[1]; listed as 2HOBA", "result": "inhibited formation of isoLG protein adducts"}, {"measurement": "formation of p53 isoLG protein adducts", "setting": "[2]", "result": "significantly inhibited formation of p53 protein adducts; also recorded: inhibited the formation of p53 protein adducts"}, {"measurement": "accumulation of isoLG adducts in esophageal tissues in vivo", "setting": "[3]", "result": "efficiently decreased isoLG protein adducts in mice in vivo; also recorded: prevents accumulation of isoLG adducts in vivo; also recorded: inhibited accumulation of isoLG adducts in vivo"}, {"measurement": "accumulation of isoLG adducts in esophageal tissues in vivo", "setting": "[3]; listed as 2HOBA", "result": "efficiently suppresses accumulation of reflux-induced protein adducts in vitro and in vivo"}, {"measurement": "isoLG adducts: surgical animals treated with 2-HOBA versus sham control animals", "setting": "[3]; mice", "result": "did not find significant difference"}]}]}
